Where only a bound is given, the exact number is not on record here.

Our source for the IC50 values is patent US12466820B2, “Amino quinazoline derivatives as P2X3 inhibitors” (CHIESI FARMACEUTICI S.p.A., priority 2019, dated 2025).

This test concerns the target T1, h P2X3 (Homo sapiens, UniProt P56373).
T1 sequence (P56373 1-397): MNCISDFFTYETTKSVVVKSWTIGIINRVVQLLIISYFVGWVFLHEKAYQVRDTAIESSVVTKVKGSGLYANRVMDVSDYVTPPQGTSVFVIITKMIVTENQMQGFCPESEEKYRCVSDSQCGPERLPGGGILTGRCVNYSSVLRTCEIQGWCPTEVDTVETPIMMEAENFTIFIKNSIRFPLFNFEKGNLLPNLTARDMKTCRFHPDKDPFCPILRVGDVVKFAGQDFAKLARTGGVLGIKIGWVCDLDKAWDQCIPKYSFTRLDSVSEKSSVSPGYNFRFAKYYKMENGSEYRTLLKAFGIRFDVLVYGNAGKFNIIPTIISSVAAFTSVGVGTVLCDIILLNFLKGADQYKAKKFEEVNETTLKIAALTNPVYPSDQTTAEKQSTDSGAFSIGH
As to the kind of experiment: In vitro electrophysiology assay for P2X3 (automated whole-cell patch clamp, Sophion Qube). The test is classed as cell-based. The following applies: Table 6; range of activity; inhibition of P2X3 current, agonist α,β-MeATP (800 nM). As to the method:
Pharmacological Activity of the Compounds of the Invention In Vitro Electrophysiology Assay for P2X3
Cells expressing P2X3 receptors were grown according to standard practice and maintained at 37° C. in a 5% humidified CO2 atmosphere. The cells were seeded into T175 flask 2 days prior to the day of the assay and dissociated from the flasks using TrypLE when grown to confluence of 80-90%. The dissociated cells were resuspended in serum free media at a cell density of 3×10^6 cells/ml and loaded onto the Sophion Qube automated patch-clamp system. The extracellular assay buffer contained 145 mM NaCl, 4 mM KCl, 2 mM CaCl2), 1 mM MgCl2, 10 mM HEPES, and 10 mM glucose at pH 7.4. The intracellular assay solution contained 140 mM CsF, 10 mM NaCl, 10 mM EGTA, 10 mM HEPES at pH 7.2. Agonist stock solutions were prepared in H2O and diluted in bath solution prior to use. All antagonists were prepared as 10 mM stock solutions in DMSO and diluted in bath solution prior to use. All experiments were performed under the whole-cell patch clamp configuration at room temperature with 384 individual cells being voltage clamped at −60 mV simultaneously on the Sophion Qube instrument. Two baseline responses were established with the application of α,β-MeATP (800 nM), with the subsequent agonist applications being washed out using extracellular assay buffer containing 0.5 U/ml apyrase. Following the second agonist application, antagonist was incubated in the absence of α,β-MeATP for 10 minutes. After antagonist preincubation, 800 nM α,β-MeATP and antagonist were co-administered to determine the inhibitory effect of the antagonist. One concentration of an antagonist was assessed against a single cell, with different concentrations of the antagonist applied to other cells on the 384 recording substrate. The control P2X3 current amplitude was taken from the peak current amplitude from the second agonist response prior to preincubation with antagonist. The peak P2X3 current amplitude in the presence of antagonist was used to calculate the inhibitory effect at each concentration of the antagonist according to the following equation: […]
Concentration-response curves were constructed from ten different concentrations with each concentration of antagonist tested on at least two individual cells. The concentration of the antagonist to inhibit P2X3 current by 50% (IC50) was determined by fitting the data with the following equation: […]
Where ‘a’ is minimum response, ‘b’ is maximum response, ‘c’ is IC50 and ‘d’ is Hill slope.
The results for individual compounds are provided below in Table 6 and are expressed as range of activity.
The activity of the comparative examples A and B have been tested in the in vitro Electrophysiology Assay for P2X3 as described above.
One may read the IC50 as the concentration at which inhibition is half-maximal. Read a high IC50 as lower potency. `Cc1cnc(-c2cc(OCC3(O)CCOCC3)c3ncnc(NC(C)c4ccc(C)nn4)c3c2)nc1` (stereo not drawn) [Example 34, 4-[[4-[1-(6-methylpyridazin-3-yl)ethylamino]-6-(5-methylpyrimidin-2-yl)quinazolin-8-yl]oxymethyl]tetrahydropyran-4-ol] gave a concentration for half-maximal inhibition (IC50) of 0.316 to 3.16 µM. As to `COc1cc(-c2ncc(C)cn2)cc2c(NC(C)c3nnc(C)s3)ncnc12` (single isomer, unassigned) [Example 124, 8-Methoxy-6-(5-methylpyrimidin-2-yl)-N-[1-(5-methyl-1,3,4-thiadiazol-2-yl)ethyl]quinazolin-4-amine], the IC50 fell in the range of 0.316 to 3.16 µM. As for `COc1cc(-c2ccc(C)cn2)cc2c(NC(C)c3nc(C)no3)ncnc12` (single isomer, unassigned) [Example 162, 8-Methoxy-N-[1-(3-methyl-1,2,4-oxadiazol-5-yl)ethyl]-6-(5-methyl-2-pyridyl)quinazolin-4-amine], the half-maximal inhibitory concentration (IC50) fell in the range of 0.316 to 3.16 µM. As for `COc1cc(-c2ncc(C)s2)cc2c(NC(C)c3nnc(C)s3)ncnc12` (single isomer, unassigned) [Example 164, 8-methoxy-N-(1-(5-methyl-1,3,4-thiadiazol-2-yl)ethyl)-6-(5-methylthiazol-2-yl)quinazolin-4-amine], the IC50 fell in the range of 0.316 to 3.16 µM. As for `COc1cc(-c2ccc(F)cn2)cc2c(N[C@H](C)c3ccn(C)n3)ncnc12` [Example 158, 6-(5-fluoro-2-pyridyl)-8-methoxy-N-[(1R)-1-(1-methylpyrazol-3-yl)ethyl]quinazolin-4-amine], the figure is 0.316 to 3.16 µM; as for `COc1cc(-c2ccc(F)cn2)cc2c(NCc3ccn(C)n3)ncnc12` [Example 140, 6-(5-fluoro-2-pyridyl)-8-methoxy-N-[(1-methylpyrazol-3-yl)methyl]quinazolin-4-amine], 0.316 to 3.16 µM. Turning to `Cc1ccc(-c2cc(OC3CCOCC3)c3ncnc(NC(C)c4nnc(C)s4)c3c2)nc1` (single isomer, unassigned) [Example 84, 6-(5-methyl-2-pyridyl)-N-[1-(5-methyl-1,3,4-thiadiazol-2-yl)ethyl]-8-tetrahydropyran-4-yloxy-quinazolin-4-amine], the IC50 is below 0.316 µM.

The molecule `COCCOc1cc(-c2ncc(C)s2)cc2c(NCc3ccc(C)nn3)ncnc12` [Example 35, 8-(2-methoxyethoxy)-N-((6-methylpyridazin-3-yl)methyl)-6-(5-methylthiazol-2-yl)quinazolin-4-amine] yielded an IC50 below 0.316 µM. `Cc1cnc(-c2cc(OC3CCOCC3)c3ncnc(NC(C)c4nnc(C)s4)c3c2)s1` (stereo not drawn) [Example 81, N-[1-(5-methyl-1,3,4-thiadiazol-2-yl)ethyl]-6-(5-methylthiazol-2-yl)-8-tetrahydropyran-4-yloxy-quinazolin-4-amine] yielded an IC50 of 0.316 to 3.16 µM.

In turn, `COc1cc(-c2ccc(F)cc2)cc2c(NC(C)c3nc(-c4ccncc4)no3)ncnc12` (single isomer, unassigned) [Example 192, 6-(4-fluorophenyl)-8-methoxy-N-(1-(3-(pyridin-4-yl)-1,2,4-oxadiazol-5-yl)ethyl)quinazolin-4-amine] showed an IC50 of 3.16 to 31.6 µM. The molecule `Cc1ccc([C@@H](C)Nc2ncnc3c(OC4CCOCC4)cc(-c4ccn(C)n4)cc23)nn1` [Example 32, (R)-6-(1-methyl-1H-pyrazol-3-yl)-N-(1-(6-methylpyridazin-3-yl)ethyl)-8-((tetrahydro-2H-pyran-4-yl)oxy)quinazolin-4-amine] came in with an IC50 of 0.316 to 3.16 µM. As for `COc1cc(-c2ncc(C)s2)cc2c(NC(C)c3nnc(C)s3)ncnc12` (single isomer, unassigned) [Example 165, 8-methoxy-N-(1-(5-methyl-1,3,4-thiadiazol-2-yl)ethyl)-6-(5-methylthiazol-2-yl)quinazolin-4-amine], the figure is below 0.316 µM; as for `COc1cc(-c2ccc(F)cn2)cc2c(NCc3cc(C)no3)ncnc12` [Example 135, 6-(5-fluoropyridin-2-yl)-8-methoxy-N-((3-methylisoxazol-5-yl)methyl)quinazolin-4-amine], 0.316 to 3.16 µM. `COc1cc(-c2ncc(F)cn2)cc2c(NC(C)c3nnc(C)o3)ncnc12` (stereo not drawn) [Example 110, 6-(5-fluoropyrimidin-2-yl)-8-methoxy-N-(1-(5-methyl-1,3,4-oxadiazol-2-yl)ethyl)quinazolin-4-amine]: the IC50 fell in the range of 0.316 to 3.16 µM. In the case of `COc1cc(-c2ncc(C)s2)cc2c(NCc3ccn(C)c(=O)c3)ncnc12` [Example 115, 4-(((8-methoxy-6-(5-methylthiazol-2-yl)quinazolin-4-yl)amino)methyl)-1-methylpyridin-2(1H)-one], the IC50 was below 0.316 µM. In the case of `Cc1cnc(-c2cc(OC3CCOCC3)c3ncnc(NC(C)c4nnc(C)s4)c3c2)s1` (single isomer, unassigned) [Example 171, N-[1-(5-methyl-1,3,4-thiadiazol-2-yl)ethyl]-6-(5-methylthiazol-2-yl)-8-tetrahydropyran-4-yloxy-quinazolin-4-amine] it was 0.316 to 3.16 µM; in that of `COc1cc(-c2ccc(C)cn2)cc2c(NCc3ccn(C)n3)ncnc12` [Example 141, 8-methoxy-N-[(1-methylpyrazol-3-yl)methyl]-6-(5-methyl-2-pyridyl)quinazolin-4-amine], 0.316 to 3.16 µM. As for `COc1cc(-c2ncc(F)cn2)cc2c(N[C@H](C)c3ccc(C)nn3)ncnc12` [Example 4], the figure is 0.316 to 3.16 µM. As for `COc1cc(-c2ncc(C)cn2)cc2c(NCC(=O)N3CCOCC3)ncnc12` [Example 160, 2-((8-methoxy-6-(5-methylpyrimidin-2-yl)quinazolin-4-yl)amino)-1-morpholinoethan-1-one], the figure is 3.16 to 31.6 µM; as for `C[C@@H](Nc1ncnc2c(C3CCOCC3)cc(-c3ccc(F)cc3)cc12)c1cnc(C(F)(F)F)nc1` [Example 26, (R)-6-(4-fluorophenyl)-8-(tetrahydro-2H-pyran-4-yl)-N-(1-(2-(trifluoromethyl)pyrimidin-5-yl)ethyl)quinazolin-4-amine], 0.316 to 3.16 µM. On to `COc1cc(-n2nccc2C)cc2c(N[C@H](C)c3ccc(C)nn3)ncnc12` [Example 102, (R)-8-methoxy-6-(5-methyl-1H-pyrazol-1-yl)-N-(1-(6-methylpyridazin-3-yl)ethyl)quinazolin-4-amine], for which the IC50 was 3.16 to 31.6 µM.

`COc1cc(-c2ncc(C)cn2)cc2c(NC(C)c3nc(-c4ccncc4)no3)ncnc12` (stereo not drawn) [Example 6, 8-methoxy-6-(5-methylpyrimidin-2-yl)-N-(1-(3-(pyridin-4-yl)-1,2,4-oxadiazol-5-yl)ethyl)quinazolin-4-amine] registered an IC50 of 0.316 to 3.16 µM. `Cc1ccc(CNc2ncnc3c(-c4ccnn4C)cc(-c4ccc(F)cc4)cc23)nn1` [Example 94, 6-(4-fluorophenyl)-8-(2-methylpyrazol-3-yl)-N-[(6-methylpyridazin-3-yl)methyl]quinazolin-4-amine] had an IC50 of 0.316 to 3.16 µM. As for `COc1cc(-c2ncc(C)cn2)cc2c(NC(C)c3nc(-c4ccncc4)no3)ncnc12` (single isomer, unassigned) [Example 167, 8-methoxy-6-(5-methylpyrimidin-2-yl)-N-(1-(3-(pyridin-4-yl)-1,2,4-oxadiazol-5-yl)ethyl)quinazolin-4-amine], the IC50 fell in the range of 0.316 to 3.16 µM.
